pIC50: −log10 of the molar value. Where a name gives a salt, the structure may show the parent alone. Read-outs that look alike come from different tables or passages of the source.

Experimental findings from EP4772514A1, “MACROCYCLIC COMPOUNDS, PREPARATION METHOD THEREFOR, AND USE THEREOF” (Genfleet Therapeutics (Shanghai) Inc., priority 2023, dated 2025) are described below.

Common to all, as to format: cell-based
Experiment [1] relates to p-ERK. In words: Cell p-ERK assay (HTRF, Advance ERK phospho-T202/Y204 kit) in AsPC-1 cells. The conditions noted are these: ASPC1; AsPC-1, human pancreatic cancer cell strain, KRAS G12D mutation; 3 h compound incubation. The method, then:
AsPC-1 cells were purchased from ATCC, Cat. No. CRL-1682; NCI-H441 cells were purchased from ATCC, Cat. No. HTB-174; RPMI-1640 medium was purchased from Gibco, Cat. No. 11875-093; FBS was purchased from Gibco, Cat. No. 10099-141C; penicillin/streptomycin double-antibiotic solution (PS) was purchased from Gibco, Cat. No. 15140-122; trypsin (containing EDTA) was purchased from Gibco, Cat. No. 25200-072; DMSO was purchased from VWRAMRESCO, Cat. No. 0231-500ML; 96-well cell culture plates were purchased from Corning, Cat. No. 3599; white-bottomed, opaque 96-well plates were purchased from Cisbio, Cat. No. 66PL96025; Advance ERK phospho-T202/Y204 kit was purchased from Cisbio, Cat. No. 64AERPEH; cell counter was purchased from CHEMOMETEC, model: NC-200; microplate reader was purchased from PerkinElmer, model: EnVision.
AsPC-1, a human pancreatic cancer cell strain endogenously containing a KRAS^G12D mutation, was cultured in a complete medium containing RPMI-1640 + 10% FBS + 1% PS. NCI-H441, a human non-small cell lung cancer cell strain endogenously containing a KRAS^G12V mutation, was cultured in a complete medium containing RPMI-1640 + 10% FBS + 1% PS.
The cells were digested with trypsin (containing EDTA), collected in their corresponding complete media, and counted. The density of the cell suspensions was adjusted with their corresponding complete media, and AsPC-1 cells (10000 cells/well) or NCI-H441 cells (20000 cells/well) were seeded into a 96-well cell culture plate, with the volume of the medium in each well being 80 µL. The cell culture plate was incubated in an incubator at 37 °C with 5% CO2 overnight. A series of 3.16-fold gradient dilutions of a 1000× compound stock solution were prepared with DMSO, and then diluted 200-fold with the complete medium described above to give 5× compound stock solutions. On the day after cell seeding, 20 µL of the 5× compound stock solution was added to each cell culture well. As a result, the final concentration of the compound in the cell culture well became 1×, and the DMSO content in the well was 0.1%. In addition to the compound-treated wells described above, cell-containing DMSO control wells were also set. A complete medium containing 0.5% DMSO was added at 20 µL/well. After the mixture was well mixed, the culture plate was incubated in the incubator at 37 °C with 5% CO2 for another 3 h. The medium was then removed from the culture wells, and 50 µL of cell lysis buffer (from Advance ERK phospho-T202/Y204 kit) was added to each well. The mixture was well mixed, incubated for 30 min, and then transferred to a white-bottomed, opaque 96-well assay plate at 16 µL/well, and separately, 16 µL of cell lysis buffer was added to additional wells (serving as blank wells) in the assay plate. After the transfer was completed, 4 µL of p-ERK HTRF antibody mixture (from Advance ERK phospho-T202/Y204 kit) was added to each well of the assay plate, followed by a 4-hour incubation. The HTRF signal values (RLU) were then measured using a microplate reader, and the inhibition rate of the compound against p-ERK levels was calculated as follows: IR(%) = (RLUDMSO - RLUcompound)/(RLUDMSO - RLUblank) × 100%, where RLUDMSO is the average HTRF signal value from the DMSO control well samples, RLU is the average HTRF signal value from the blank well samples, and RLUcompound is the HTRF signal value from the compound-treated well samples. Using an XLfit software, the IR(%) values were plotted against the logarithm of the compound concentrations, and the dose-response curves were fitted using the four-parameter method to calculate the IC50 values.

Experiment [2] relates to p-ERK. In words: Cell p-ERK assay (HTRF, Advance ERK phospho-T202/Y204 kit) in NCI-H441 cells. The conditions noted are these: NCI-H441, human non-small cell lung cancer cell strain, KRAS G12V mutation, 3 h compound incubation. Summed up: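 Cells with endogenous KRAS mutations, AsPC-1 (G12D) and NCI-H441 (G12V), were plated overnight and then exposed to compound for 3 h at 37 °C (final 0.1% DMSO, 10% FBS medium). ERK T202/Y204 phosphorylation in lysates was read by HTRF, and IC50 was derived from four-parameter curves of inhibition relative to DMSO and blank controls.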

The test system of another experiment is NCI-H441 cells. In words: 3D cell proliferation assay (CellTiter Glo-3D) in NCI-H441 cells. The conditions noted are these: NCI-H441, human lung cancer cell strain, KRAS G12V mutation, 3D culture, 2% FBS, 5 days, read-out: H441 AP IC50. The text has this:
MIA PaCa-2 cells were purchased from ATCC, Cat. No. CRL-1420; AsPC-1 cells were purchased from ATCC, Cat. No. CRL-1682; NCI-H441 cells were purchased from ATCC, Cat. No. HTB-174; NCI-H1975 cells were purchased from ATCC, Cat. No. CRL-5908; DMEM medium was purchased from Gibco, Cat. No. 11995-065; RPMI-1640 medium was purchased from Gibco, Cat. No. 11875-093; FBS was purchased from Gibco, Cat. No. 10099-141C; penicillin/streptomycin double-antibiotic solution (PS) was purchased from Gibco, Cat. No. 15140-122; Horse serum was purchased from Gibco, Cat. No. 16050130; trypsin (containing EDTA) was purchased from Gibco, Cat. No. 25200-072; DMSO was purchased from VWRAMRESCO, Cat. No. 0231-500ML; 384-well cell culture plates were purchased from Corning, Cat. No. 3830; white-bottomed, opaque 384-well assay plates were purchased from Corning, Cat. No. 3570; CellTiter Glo-3D kit was purchased from Promega, Cat. No. G9683; cell counter was purchased from CHEMOMETEC, model: NC-200; microplate reader was purchased from PerkinElmer, model: EnVision.
MIA PaCa-2, a human pancreatic cancer cell strain endogenously containing a KRAS^G12Cmutation, was cultured in a complete medium containing DMEM + 10% FBS + 2.5% Horse serum + 1% PS. AsPC-1, a human pancreatic cancer cell strain endogenously containing a KRAS^G12D mutation, was cultured in a complete medium containing RPMI-1640 + 10% FBS + 1% PS. NCI-H441 cells, a human lung cancer cell strain endogenously containing a KRAS^G12V mutation, were cultured in a complete medium containing RPMI-1640 + 10% FBS + 1% PS. NCI-H1975, a KRAS wild-type human lung cancer cell strain whose cell proliferation […], was cultured in a complete medium containing RPMI-1640 + 10% FBS + 1% PS.
The cells were digested with trypsin (containing EDTA), collected in their respective low-serum complete media containing 2% FBS (for MIA Paca-2 cell culture: DMEM + 2% FBS + 0.5% Horse serum + 1% PS), and counted. After the cell density was adjusted as required, MIA PaCa-2 cells (200 cells/well), AsPC-1 cells (800 cells/well), NCI-H441 cells (800 cells/well), or NCI-H1975 cells (400 cells/well) were seeded into a 384-well cell culture plate, with the volume of the medium in each well being 45 µL. The cell culture plate was incubated in an incubator at 37 °C with 5% CO2 overnight. A series of 3.16-fold gradient dilutions of a 1000× compound stock solution were prepared with DMSO, and then diluted 100-fold with the complete medium containing 2% FBS described above to give 10× compound stock solutions. On the day after cell seeding, 5 µL of the 10× compound stock solution was added to each cell culture well. As a result, the final concentration of the compound in the cell culture well became 1×, and the DMSO content in the well was 0.1%. In addition to the compound-treated wells described above, cell-containing DMSO control wells (with 5 µL of the complete medium containing 1% DMSO added to each well) and cell-free medium control wells (containing 50 µL of the complete medium with 2% FBS) were also set. The culture plate was incubated in an incubator at 37 °C with 5% CO2 for another 5 days, and then 30 µL of CellTiter-Glo working solution was added to each well. The mixture was well mixed, incubated for 30 min, left to stand at room temperature for 30 min, and then transferred to a white-bottomed, opaque 384-well assay plate at 40 µL/well. The chemiluminescence values (RLU) were measured using a microplate reader, and the cell proliferation inhibition rate for each well was calculated: IR(%) = (RLUDMSO - RLUcompound)/(RLUDMSO - RLUblank) × 100%, where RLUDMSO is the average RLU signal value from the DMSO control well samples, RLUblank is the average RLU signal value from the medium control well samples, and RLUcompound is the RLU signal value from the compound-treated well samples. […]
Background: ATP-based viability assays read luminescence as a measure of living cells.

Broadly, the pIC50 is the IC50 on a negative log10 scale, so that one unit is a factor of ten. `CCn1nc2c(c1-c1cc(N3CCN(C)CC3)cnc1[C@H](C)OC)CC(C)(C)COC(=O)[C@@H]1CCCN(N1)C(=O)[C@@H](NC(=O)[C@H]1[C@H](C)[C@@H]1C)Cc1nc(cs1)/C=C/2` (atropisomer, axis not shown) [Compound Z4]: the pIC50 in the experiment with p-ERK [1] was 6.44; with p-ERK [2] (Homo sapiens, NCI-H441, 3 h), 6.80.

`CCn1cc2c(c1-c1cc(C#CCN3CCC(C#N)CC3)cnc1[C@H](C)OC)CC(C)(C)COC(=O)[C@@H]1CCCN(N1)C(=O)[C@@H](NC(=O)[C@H]1[C@@H]3COC[C@@H]31)Cc1nc(co1)/C=C/2` (atropisomer, axis not shown; (Ra)) [Compound Z85, (1R,5S,6r)-N-((4^2Z,8^3S,2E,6S)-(Ra)-1^5-(5-(3-(4-cyanopiperidin-1-yl)prop-1-yn-1-yl)-2-((S)-1-methoxyethyl)pyridin-3-yl)-1^1-ethyl-12,12-dimethyl-7,9-dioxo-8^1,8^2,8^3,8^4,8^5,8^6-hexahydro-1^1H-10-oxa-4(4,2)-oxazola-8(1,3)-pyridazina-1(3,4)-pyrrolacyclotridecaphan-2-en-6-yl)-3-oxabicyclo[3.1.0]hexane-6-carboxamide]: the pIC50 in the experiment on p-ERK [1] was 10.40; with p-ERK [2] (Homo sapiens, NCI-H441, 3 h), 9.70.

With `CCn1cc2c(c1-c1cc(C#CCN3CCC(C#N)(CN)CC3)cnc1[C@H](C)OC)CC(C)(C)COC(=O)[C@@H]1CCCN(N1)C(=O)[C@@H](NC(=O)[C@H]1[C@H](C)[C@@H]1C)Cc1nc(co1)/C=C/2` (atropisomer, axis not shown; (Ra)) [Compound Z234, (1r,2R,3S)-N-((4^2Z,8^3 S,2E,6S)-(Ra)-1^5-(5-(3-(4-(aminomethyl)-4-cyanopiperidin-1-yl)prop-1-yn-1-yl)-2-((S)-1-methoxyethyl)pyridin-3-yl)-1^1-ethyl-12,12-dimethyl-7,9-dioxo-8^1,8^2,8^3,8^4,8^5,8^6-hexahydro-1^1H-10-oxa-4(4,2)-oxazola-8(1,3)-pyridazina-1(3,4)-pyrrolacyclotridecaphan-2-en-6-yl)-2,3-dimethylcyclopropane-1-carboxamide], the pIC50 in the experiment with p-ERK [1] is 10.15; with p-ERK [2] (Homo sapiens, NCI-H441, 3 h), 9.44.

Regarding `CCn1nc2c(c1-c1cc(N3CCN(C)CC3)cnc1[C@H](C)OC)CC(C)(C)COC(=O)[C@@H]1CCCN(N1)C(=O)[C@@H](NC(=O)[C@H]1[C@H](C)[C@@H]1C)Cc1nc(cs1)/C=C/2` (single isomer, unassigned) [Compound Z4-1], the pIC50 with p-ERK [1] was 6.72; with p-ERK [2] (Homo sapiens, NCI-H441, 3 h) it was 7.14.

Consider `CCn1nc2c(c1-c1cc(C#CCN3CCS(=O)(=O)CC3)cnc1C(C)OC)CC(C)(C)COC(=O)C1CCCN(N1)C(=O)C(NC(=O)C(C(C)C)N(C)C(=O)Cn1ccc3ccccc31)Cc1nc(cs1)C=C2` (single isomer, unassigned) [Compound Z54-1], for which the pIC50 is 6.82 with p-ERK [2] (Homo sapiens, NCI-H441, 3 h) and 6.62 in the experiment on NCI-H441 cells (Homo sapiens, NCI-H441, 120 h).

Take `CO[C@@H](C)c1ncc(C#CCN2CCS(=O)(=O)CC2)cc1-c1c2c(nn1C(C)C)/C=C/c1csc(n1)C[C@H](NC(=O)[C@H](Cc1cccc3ncccc13)C(C)C)C(=O)N1CCC[C@H](N1)C(=O)OCC(C)(C)C2` [Compound Z44-2, (2R)-N-((4^2Z,8^3S,2E,6S)-1^5-(5-(3-(1,1-dioxidothiomorpholino)prop-1-yn-1-yl)-2-((S)-1-methoxyethyl)pyridin-3-yl)-1^1-isopropyl-12,12-dimethyl-7,9-dioxo-8^1,8^2,8^3,8^4,8^5,8^6-hexahydro-1^1H-10-oxa-4(4,2)-thiazola-8(1,3)-pyridazina-1(3,4)-pyrazolocyclotridec-2-en-6-yl)-3-methyl-2-(quinolin-5-ylmethyl)butanamide formate]: the pIC50 with p-ERK [2] was 7.81; in the experiment with NCI-H441 cells, 7.12.

Consider “(2R)-N-((4^2Z,8^3S,2E,6S)-(Ra)-1^5-(5-(3-(1,1-dioxothiomorpholino)prop-1-yn-1-yl)-2-((S)-1-methoxyethyl)pyridin-3-yl)-1^1-ethyl-12,12-dimethyl-7,9-dioxo-8^1,8^2,8^3,8^4,8^5,8^6-hexahydro-1^1H-10-oxo-4(4,2)-thiazola-8(1,3)-pyridazina-1(3,4)-pyrrolacyclotridecaphan-2-en-6-yl)-3-methyl-2-(N-methyl-2-phenylacetamido)butanamide [Compound Z47-2]”, for which the results for the pIC50 in the experiment with p-ERK [2] and with NCI-H441 cells were 7.76 and 7.43, respectively.
